This is an account of results in publication PMC4715686 (Chemical biology & drug design, 2015).

One data set has as its target rhodesain (Trypanosoma brucei rhodesiense, UniProt Q95PM0). The data set can be described thus: Rhodesain inhibition assay. The format is biochemical, T. brucei rhodesiense.
The test system of data set [1] is T. brucei brucei 427 strain. The data set can be described thus: Antitrypanosomal activity, Alamar blue assay. The format is cell-based. As to conditions: for IC50: Trypanosoma brucei, 24 h, read-out: IC50 T. brucei. In general terms: Resazurin is reduced to fluorescent resorufin, in cell work by metabolically active cells.
The nature of data set [2]: Hep G2 cell viability, MTT assay. The format is cell-based. As to conditions: human. A general note: Tetrazolium dyes change colour on reduction, which living cells bring about.

As for `Nc1ccc(-c2nc3ccc(Cc4ccc5nc(-c6ccc(N)cc6)[nH]c5c4)cc3[nH]2)cc1` [Compound 1, 4,4′-[methylenebis(1H-benzimidazole-6,2-diyl)]-dianiline], the IC50 against rhodesain came to 890 ± 100 nM; in data set [1], 5800 ± 1000 nM. Also, in data set [2], the viability at 72 h, 20 µM was 84.7 ± 5.79%.

`O=C(c1ccccc1)c1ccc2[nH]c(-c3ccc(NC(=O)c4ccccc4Cl)cc3)nc2c1` [Compound 7, N-[4-(5-benzoyl-1H-benzimidazol-2-yl)phenyl]-2-chlorobenzamide]: at rhodesain, the IC50 is more than 20000 nM and the “inhibitory activity against rhodesain (in words)” value is “did not display any inhibitory activity”. Further, in data set [1], the “activity against T. brucei (in words)” value is “active” and the IC50 is 2830 ± 260 nM. Besides, the “selectivity for the parasite over Hep G2 cells (in words)” value in data set [1] (T. brucei vs Hep G2 cells) is “considerable selectivity”. In data set [2], this compound displayed a viability at 72 h, 20 µM of 86.2 ± 9.67%.

Broadly, the IC50 is the midpoint of a concentration-inhibition curve. What is called viability is the share of living cells, or the viability signal relative to a control. Low values mean more harm to the cells, high ones less harm to the cells.
